Experiments:
[1] = 101.33 kPa, Liquid; for mass density: Pycnometric method; for speed of sound: Linear variable-path acoustic interferometer
[2] = xn = mol fraction of the nth substance listed; conditions: 101 kPa, Liquid; for excess molar volume: 298.15 K, Direct dilatometry; for speed of sound: 308.15 K, Linear variable-path acoustic interferometer
[3] = excess molar enthalpy (molar enthalpy of mixing); xn = mol fraction of the nth substance listed; conditions: 308.15 K, 101 kPa, Liquid, Calvet calorimetry

Cc1ccccc1N [2-methylaniline]
[1]
Conditions | mass density [kg/m3] | speed of sound [m/s]
298.15 K | 994.28 | –
308.15 K | – | 1603

Cc1ccccc1N [2-methylaniline] + C1CCCCC1
Conditions | excess molar enthalpy [kcal/mol] | excess molar volume [m3/mol] | speed of sound [m/s]
[2], x1 = 0.0663 | – | – | 1215
[2], x1 = 0.0768 | – | 2.41e-07 | –
[2], x1 = 0.1293 | – | – | 1221
[2], x1 = 0.1415 | – | 3.87e-07 | –
[2], x1 = 0.1758 | – | – | 1228
[2], x1 = 0.1925 | – | 4.7e-07 | –
[2], x1 = 0.2355 | – | – | 1239
[2], x1 = 0.2442 | – | 5.29e-07 | –
[2], x1 = 0.2901 | – | 5.62e-07 | –
[2], x1 = 0.2902 | – | – | 1252
[2], x1 = 0.3335 | – | – | 1264
[2], x1 = 0.3415 | – | 5.81e-07 | –
[2], x1 = 0.393 | – | – | 1282
[2], x1 = 0.3981 | – | 5.82e-07 | –
[2], x1 = 0.4506 | – | 5.68e-07 | –
[2], x1 = 0.4881 | – | – | 1315
[2], x1 = 0.5225 | – | 5.29e-07 | –
[2], x1 = 0.556 | – | – | 1342
[2], x1 = 0.6103 | – | 4.57e-07 | –
[2], x1 = 0.6453 | – | – | 1382
[2], x1 = 0.6875 | – | 3.79e-07 | –
[2], x1 = 0.7117 | – | – | 1415
[2], x1 = 0.7513 | – | 3.07e-07 | –
[2], x1 = 0.7986 | – | – | 1462
[2], x1 = 0.8224 | – | 2.22e-07 | –
[2], x1 = 0.8479 | – | – | 1493
[2], x1 = 0.9026 | – | – | 1528
[2], x1 = 0.9119 | – | 1.11e-07 | –
[3], x1 = 0.0527 | 0.0635 | – | –
[3], x1 = 0.1017 | 0.121 | – | –
[3], x1 = 0.1628 | 0.189 | – | –
[3], x1 = 0.2349 | 0.26 | – | –
[3], x1 = 0.2681 | 0.313 | – | –
[3], x1 = 0.3614 | 0.354 | – | –
[3], x1 = 0.4213 | 0.382 | – | –
[3], x1 = 0.4907 | 0.399 | – | –
[3], x1 = 0.5613 | 0.398 | – | –
[3], x1 = 0.6121 | 0.387 | – | –
[3], x1 = 0.6774 | 0.357 | – | –
[3], x1 = 0.7643 | 0.294 | – | –
[3], x1 = 0.8391 | 0.219 | – | –
[3], x1 = 0.931 | 0.102 | – | –

Cc1ccccc1N [2-methylaniline] + CCCCCC
Conditions | excess molar enthalpy [kcal/mol] | excess molar volume [m3/mol] | speed of sound [m/s]
[2], x1 = 0.0697 | – | – | 1056
[2], x1 = 0.0712 | – | -4.8e-08 | –
[2], x1 = 0.1172 | – | – | 1075
[2], x1 = 0.1767 | – | -1.25e-07 | –
[2], x1 = 0.1851 | – | – | 1105
[2], x1 = 0.2524 | – | -1.84e-07 | –
[2], x1 = 0.2657 | – | – | 1142
[2], x1 = 0.2933 | – | -2.15e-07 | –
[2], x1 = 0.3119 | – | – | 1165
[2], x1 = 0.3442 | – | -2.52e-07 | –
[2], x1 = 0.3707 | – | – | 1194
[2], x1 = 0.3801 | – | -2.77e-07 | –
[2], x1 = 0.4443 | – | -3.15e-07 | –
[2], x1 = 0.4478 | – | – | 1232
[2], x1 = 0.4903 | – | -3.38e-07 | –
[2], x1 = 0.5009 | – | – | 1259
[2], x1 = 0.5613 | – | -3.63e-07 | –
[2], x1 = 0.5787 | – | – | 1297
[2], x1 = 0.6363 | – | -3.71e-07 | –
[2], x1 = 0.6449 | – | – | 1329
[2], x1 = 0.6991 | – | -3.61e-07 | –
[2], x1 = 0.709 | – | – | 1359
[2], x1 = 0.7552 | – | -3.36e-07 | –
[2], x1 = 0.7673 | – | – | 1389
[2], x1 = 0.8345 | – | -2.71e-07 | –
[2], x1 = 0.8391 | – | – | 1433
[2], x1 = 0.9123 | – | – | 1501
[2], x1 = 0.9265 | – | -1.46e-07 | –
[3], x1 = 0.0678 | 0.0385 | – | –
[3], x1 = 0.1317 | 0.084 | – | –
[3], x1 = 0.1927 | 0.132 | – | –
[3], x1 = 0.2505 | 0.179 | – | –
[3], x1 = 0.3314 | 0.242 | – | –
[3], x1 = 0.4015 | 0.29 | – | –
[3], x1 = 0.4718 | 0.328 | – | –
[3], x1 = 0.5317 | 0.35 | – | –
[3], x1 = 0.5997 | 0.36 | – | –
[3], x1 = 0.6532 | 0.355 | – | –
[3], x1 = 0.7013 | 0.341 | – | –
[3], x1 = 0.7717 | 0.301 | – | –
[3], x1 = 0.8439 | 0.235 | – | –
[3], x1 = 0.9164 | 0.142 | – | –

Cc1ccccc1N [2-methylaniline] + CCCCCCC
Conditions | excess molar enthalpy [kcal/mol] | excess molar volume [m3/mol] | speed of sound [m/s]
[2], x1 = 0.0707 | – | – | 1102
[2], x1 = 0.0814 | – | -4.8e-08 | –
[2], x1 = 0.1227 | – | – | 1115
[2], x1 = 0.1663 | – | -1.02e-07 | –
[2], x1 = 0.1758 | – | – | 1129
[2], x1 = 0.2224 | – | -1.37e-07 | –
[2], x1 = 0.2378 | – | – | 1148
[2], x1 = 0.2812 | – | -1.71e-07 | –
[2], x1 = 0.3079 | – | – | 1172
[2], x1 = 0.3388 | – | -1.99e-07 | –
[2], x1 = 0.3508 | – | – | 1187
[2], x1 = 0.3991 | – | -2.23e-07 | –
[2], x1 = 0.4047 | – | – | 1208
[2], x1 = 0.4554 | – | -2.38e-07 | –
[2], x1 = 0.4679 | – | – | 1233
[2], x1 = 0.5218 | – | -2.47e-07 | –
[2], x1 = 0.547 | – | – | 1266
[2], x1 = 0.5804 | – | -2.45e-07 | –
[2], x1 = 0.6131 | – | – | 1296
[2], x1 = 0.6446 | – | -2.33e-07 | –
[2], x1 = 0.6884 | – | – | 1334
[2], x1 = 0.7112 | – | -2.1e-07 | –
[2], x1 = 0.7597 | – | – | 1373
[2], x1 = 0.7819 | – | -1.73e-07 | –
[2], x1 = 0.8208 | – | – | 1413
[2], x1 = 0.8503 | – | -1.27e-07 | –
[2], x1 = 0.9224 | – | – | 1501
[2], x1 = 0.9383 | – | -6.7e-08 | –
[3], x1 = 0.0734 | 0.0479 | – | –
[3], x1 = 0.1457 | 0.0872 | – | –
[3], x1 = 0.1968 | 0.112 | – | –
[3], x1 = 0.2678 | 0.144 | – | –
[3], x1 = 0.3109 | 0.162 | – | –
[3], x1 = 0.3874 | 0.193 | – | –
[3], x1 = 0.4467 | 0.215 | – | –
[3], x1 = 0.5019 | 0.234 | – | –
[3], x1 = 0.5876 | 0.256 | – | –
[3], x1 = 0.6513 | 0.264 | – | –
[3], x1 = 0.7016 | 0.263 | – | –
[3], x1 = 0.7767 | 0.244 | – | –
[3], x1 = 0.8312 | 0.215 | – | –
[3], x1 = 0.9267 | 0.12 | – | –

C1CCCCC1 [cyclohexane]
[1], 298.15 K
Conditions | mass density [kg/m3] | speed of sound [m/s]
– | 773.94 | 1255

CCCCCCC [heptane]
[1]
Conditions | mass density [kg/m3] | speed of sound [m/s]
298.15 K | 679.49 | –
308.15 K | – | 1088

CCCCCC [hexane]
[1], 298.15 K
Conditions | mass density [kg/m3] | speed of sound [m/s]
– | 654.82 | 1079
